Laboratory results published in patent US20100113430A1, “THIOXANTHENE DERIVATES USEFUL TO TREAT INFECTIOUS DISEASES” (BKG PHARMA APS, priority 2007, published 2010).
Values after ≈ are worked out from the molar mass of the structure shown.

How the values were obtained:
Assay type in all cases: cell-based
[1] = test system: Fluconazole Resistant Candida albicans clinical isolate; assay: MIC (80% growth inhibition), broth microdilution NCCLS M27-A, fluconazole resistant Candida albicans; conditions: Candida albicans
Experimental: The antimicrobial effect of N-dealkyl-trans-clopenthixol and N-dealkyl-trans-flupenthixol was studied by exposing cells to 0-8 μg/ml of the compounds in two-fold dilutions. Each experiment was repeated in triple duplicate. MIC values represent the mean values of two separate experiments.
Clinical Isolate of A Fluconazole Resistant Candida albicans from a Patient with Candidemia.
The isolates were subcultured for 24 h on Sabouraud glucose agar before susceptibility testing. Broth microdilution tests were performed according to NCCLS document M27-A (Ref: National Commitee for Clinical Laboratory Standards. (1997). Reference Method for Broth Dilution Antifungal Susceptibility Testing of Yeasts: Approved Standard M27-A. NCCLS, Wayne, Pa.)
Microtitre plates were read spectrophotometrically at 530 nm, after mixing the wells by pipetting to resuspend yeast sediments. The MIC was defined as the lowest drug dilution resulting in 80% growth inhibition.

[2] = test system: Enterococcus faecium resistant clinical isolates; assay: MIC/IC90, resistant clinical isolates of Enterococcus faecium
Experimental: (§1) Cell growth was tested using the Minimal Inhibitory Concentration (MIC) susceptibility tests by use of the microdilution broth method in accordance to the NCCLS Guidelines (NCCLS Guidelines, Methods for Dilution Antimicrobial Susceptibility Tests for Bacteria That Grow Aerobically; Approved Standard, Sixth Edition, Volume 23; Number 2). The minimum inhibitory concentration (MIC), is defined ad the lowest concentration of drug which inhibits growth of the test organism, in the sense that no visible growth is detected (total inhibition of growth). In example 2 MIC of the compounds used on fungal microorganisms was determined from the IC90 measurements according to NCCLS Guidelines.
(§2) A log phase culture of bacteria was diluted with fresh pre-warmed Mueller-Hinton medium and adjusted to a defined OD at 600 nm in order to give a final concentration of 1×10^4-5 bacteria/ml medium. The bacterial culture was transferred to microtiter-plates and culture was added to each well. Drug was added to the bacterial culture in the wells as two-fold dilution series of drug in order to give final concentrations ranging from 0.03 to 128 μg/ml. Trays were incubated at 37° C. by shaking in a robot analyzer, PowerWavex, software KC^4′ Kebo.Lab, Copenhagen, for 16 h and optical densities were measured at 600 nm during the incubation time in order to record growth curves. Wells containing bacterial culture without drug were used as controls to ensure correct inoculum size and bacterial growth during the incubation. Cultures were tested in order to detect contaminations. Each experiment was repeated in triplicate. MIC values represent the mean values of two separate triplicate experiments. Intra- and interassay variation was <5%.
Inhibition 90 (IC90) is defined as: OD responding a 90% growth inhibition. […]
(§3) Clinically relevant isolates were cultured and assayed as described above.

[3] = test system: clinically relevant resistant bacterial isolate S. Aureus; assay: Growth inhibition by cis/trans combinations, resistant isolate S. Aureus; conditions: Cis-compound 16 μg/ml, Trans-compound 0 μg/ml
Experimental: as §1
as §2, with “Wells containing bacterial culture without drug were used as controls to ensure correct inoculum size and bacterial growth during the incubation. Cultures were tested in order to detect contaminations. Each experiment was repeated in triplicate. MIC values represent the mean values of two separate triplicate experiments. Intra- and interassay variation was <5%.” left out

Streptococci = assay: MIC/IC90 broad spectrum, Streptococci; conditions: 30 strains, 20 resistant
Experimental: as §1, §2
(§4) Inhibition 90 (IC90) is defined as: OD responding a 90% growth inhibition.
(§5) A broad spectrum of bacteria were cultured and assayed as described above for susceptibility towards N-dealkyl-clopenthixol.

Gram negative sp. = assay: MIC/IC90 broad spectrum, Gram negative sp.; conditions: 25 strains, 20 resistant
Experimental: as §1, §2, §4, §5

[4] = test system: Staphylococci, Micrococci. Including MRSA; assay: MIC/IC90 broad spectrum, Staphylococci and Micrococci; conditions: 30 strains, 20 resistant (20 MRSA)
Experimental: as §1, §2, §4, §5

[5] = test system: Candida glabrata Multiresistant isolate; assay: MIC of cis- and trans-forms, Candida glabrata multiresistant isolate; conditions: Example 4
Experimental: as §1
Cultured microorganisms were assayed as described above. Cis- and trans-isomers of N-dealkyl-clopenthixol was added to the cultures.

[6] = test system: Enterococcus faecalis resistant clinical isolates; assay: MIC/IC90, resistant clinical isolates of Enterococcus faecalis
Experimental: as §1, §2, §4, §3

[7] = test system: multiresistant clinical isolate of Staphylococcus epidermidis; assay: MIC, microdilution broth method (NCCLS), Staphylococcus epidermidis
Experimental: as §1
as §2, with “Drug was added to the bacterial culture in the wells as two-fold dilution series of drug in order to give final concentrations ranging from 0.03 to 128 μg/ml.” left out, “triplicate.” for “triplicate. MIC values represent the mean values of two separate triplicate experiments. Intra- and interassay variation was <5%.”
A clinically relevant isolate of Staphylococcus epidermidis was cultured and assayed as described above for susceptibility towards the compounds listed in table 1.

[8] = test system: Candida glabrata clinical isolates; assay: MIC (90% growth inhibition), broth microdilution NCCLS M27-A, Candida glabrata
Experimental: as §1, with “Guidelines. […]” for “Guidelines.”
(§6) 4 clinical isolates of Candida sp. (including 3 fluconazole resistant isolates) were subcultured for 24 h on Sabouraud glucose agar before susceptibility testing. Broth microdilution tests were performed according to NCCLS document M27-A (Ref: National Committee for Clinical Laboratory Standards. (1997). Reference Method for Broth Dilution Antifungal Susceptibility Testing of Yeasts: Approved Standard M27-A. NCCLS, Wayne, Pa.). Microtitre plates were read spectrophotometrically at 530 nm, after mixing the wells by pipetting to resuspend yeast sediments. In this experiment, the MIC was defined as the lowest drug dilution resulting in 90% growth inhibition.

[9] = test system: Candida albicans clinical isolate; assay: MIC (90% growth inhibition), broth microdilution NCCLS M27-A, Candida albicans; conditions: strain 1. Candida albicans FR (fluconazole resistant)
Experimental: as §1
The antibacterial effect of demethylated/dealkylated phenothiazine or thioxanthene compounds were studied by growth inhibition studies exposing cells to 0-32 μg/ml of drug. Each experiment was repeated in triplicate. MIC values represent the mean values of two separate triplicate experiments.
as §6

[10] = multiresistant clinical isolate of Staphylococcus epidermidis, Example 1
[11] = strain 2. Candida glabrata FR (fluconazole resistant)
[12] = strain 4. Candida glabrata FR (fluconazole resistant)

For `OC(Cn1cncn1)(Cn1cncn1)c1ccc(F)cc1F` [Fluconazole, reference compound], the MIC [1] was 128 µg/mL (≈ 418 µM).
With `Clc1ccc2c(c1)/C(=C\CCN1CCNCC1)c1ccccc1S2` [N-dealkyl-cis-clopenthixol, cis-1-(3-(2-chlorothioxanthen-9-ylidene)propyl)piperazine] the MIC ([2]; Enterococcus faecium 11, VanA) was greater than 8 µg/mL, the MIC ([2]; Enterococcus faecium 12, VanA) was greater than 8 µg/mL and the MIC ([2]; Enterococcus faecium 13, VanB) was greater than 8 µg/mL. For the same molecule, the MIC ([2]; Enterococcus faecium 14, HLAR) was greater than 8 µg/mL, the MIC ([2]; Enterococcus faecium 15, HLAR) was greater than 8 µg/mL and the MIC ([2]; Enterococcus faecium 16, BLR, CR) was greater than 8 µg/mL. For the same molecule, the MIC ([2]; Enterococcus faecium 17, VanB) was greater than 8 µg/mL, the MIC ([2]; Enterococcus faecium 18, VanB) was greater than 8 µg/mL and the MIC ([2]; Enterococcus faecium 19, VanB) was greater than 8 µg/mL. For the same molecule, the MIC ([2]; Enterococcus faecium multiresistant isolate, Example 4) was 16 µg/mL (≈ 44.8 µM), the Growth inhibition [3] was 100% and the “MIC (mean)” value (Streptococci) was 16 µg/mL (≈ 44.8 µM). For the same molecule, the “MIC (mean)” value (Gram negative sp.) was greater than 16 µg/mL, the “MIC (mean)” value [4] was 16 µg/mL (≈ 44.8 µM) and the MIC [5] was greater than 16 µg/mL. For the same molecule, the MIC ([6]; Enterococcus faecalis 1, VanA) was greater than 8 µg/mL, the MIC ([6]; Enterococcus faecalis 2, VanA) was greater than 8 µg/mL and the MIC ([6]; Enterococcus faecalis 3, VanA) was greater than 8 µg/mL. The MIC ([6]; Enterococcus faecalis 4, VanB) was greater than 8 µg/mL, the MIC ([6]; Enterococcus faecalis 5, Van B) was greater than 8 µg/mL and the MIC ([6]; Enterococcus faecalis 6, VanB) was greater than 8 µg/mL. For the same molecule, the MIC ([6]; Enterococcus faecalis 7, VanA) was greater than 8 µg/mL, the MIC ([6]; Enterococcus faecalis 8, HLAR) was greater than 8 µg/mL and the MIC ([6]; Enterococcus faecalis 9, HLAR) was greater than 8 µg/mL. For the same molecule, the MIC ([6]; Enterococcus faecalis 10, BLR, CR) was greater than 8 µg/mL, the MIC ([7]; Staphylococcus epidermidis multiresistant isolate, Example 6, isomers alone and 1:1 mixture) was greater than 8 µg/mL and the MIC [7, 10] was 16 µg/mL (≈ 44.8 µM).
`Fc1ccc2c(c1)C(=CCCN1CCNCC1)c1ccccc1S2` [N-dealkyl-cis-flupenthixol, cis-1-(3-(2-fluor-thioxanthen-9-ylidene)propyl)piperazine] showed an MIC [7, 10] of 16 µg/mL (≈ 47 µM).
Molecule `FC(F)(F)c1ccc2c(c1)N(CCCN1CCNCC1)c1ccccc1S2` [N-deshydroxy-ethyl-Fluphenazine, reference compound] has an MIC [7, 10] of 16 µg/mL (≈ 40.7 µM).
Work on `CNCCC=C1c2ccccc2Sc2ccc(Cl)cc21` [N-desmethyl-Chlorprothixen, reference compound] yielded an MIC [8, 11] of 16 µg/mL (≈ 53 µM), an MIC [8, 12] of 16 µg/mL (≈ 53 µM) and an MIC ([8]; strain 5. Candida glabrata) of 16 µg/mL (≈ 53 µM). It also gave an MIC [9] of 16 µg/mL (≈ 53 µM) and an MIC [7, 10] of 16 µg/mL (≈ 53 µM).
For `CNCCCN1c2ccccc2Sc2ccc(Cl)cc21` [N-desmethyl-chlorpromazine, reference compound], the MIC [7, 10] was 16 µg/mL (≈ 52.5 µM).
With “Desmethyl-perphenazin [reference compound]” the MIC [8, 11] was 16 µg/mL, the MIC [8, 12] was 16 µg/mL and the MIC ([8]; strain 5. Candida glabrata) was 16 µg/mL. It also gave an MIC [9] of 16 µg/mL and an MIC [7, 10] of 16 µg/mL.
